# Measurements: ChEMBL document CHEMBL4024727, “Synthesis and antimycobacterial screening of new thiazolyl-oxazole derivatives” (Eur J Med Chem, 2017)
# What was measured:
# Pseudomonas fluorescens [1] = assay: Growth inhibition of Pseudomonas fluorescens NCIM 2059 at 10 ug/ml measured after 8 hrs relative to control; type: functional; conditions: NCIM 2059, 8 h, read-out: GI
# Pseudomonas fluorescens [2] = assay: Growth inhibition of Pseudomonas fluorescens NCIM 2059 at 30 ug/ml measured after 8 hrs relative to control; type: functional; conditions: NCIM 2059, 8 h, read-out: GI
# Staphylococcus aureus [3] = assay: Growth inhibition of Staphylococcus aureus NCIM 2602 at 10 ug/ml measured after 12 hrs relative to control; type: functional; conditions: NCIM 2602, 12 h, read-out: GI
# Pseudomonas fluorescens [4] = assay: Growth inhibition of Pseudomonas fluorescens NCIM 2059 at 1 ug/ml measured after 8 hrs relative to control; type: functional; conditions: NCIM 2059, 8 h, read-out: GI
# Escherichia coli [5] = assay: Growth inhibition of Escherichia coli NCIM 2576 at 1 ug/ml measured after 8 hrs relative to control; type: functional; conditions: NCIM 2576, 8 h, read-out: GI
# Escherichia coli [6] = assay: Growth inhibition of Escherichia coli NCIM 2576 at 30 ug/ml measured after 8 hrs relative to control; type: functional; conditions: NCIM 2576, 8 h, read-out: GI
# Escherichia coli [7] = assay: Growth inhibition of Escherichia coli NCIM 2576 at 10 ug/ml measured after 8 hrs relative to control; type: functional; conditions: NCIM 2576, 8 h, read-out: GI
# [8] = tested on: Mycobacterium tuberculosis; assay: Growth inhibition of Mycobacterium tuberculosis H37Ra ATCC 25177 at 3 ug/ml by XTT dye based two-fold dilution method relative to control; type: functional; conditions: read-out: GI
# [9] = tested on: Mycobacterium tuberculosis; assay: Growth inhibition of Mycobacterium bovis BCG ATCC 35743 at 30 ug/ml by nitrate reductase based two-fold dilution assay relative to control; type: functional; conditions: BCG str. ATCC 35743, read-out: GI
# Staphylococcus aureus [10] = assay: Growth inhibition of Staphylococcus aureus NCIM 2602 at 1 ug/ml measured after 12 hrs relative to control; type: functional; conditions: NCIM 2602, 12 h, read-out: GI
# Staphylococcus aureus [11] = assay: Growth inhibition of Staphylococcus aureus NCIM 2602 at 30 ug/ml measured after 12 hrs relative to control; type: functional; conditions: NCIM 2602, 12 h, read-out: GI
# Bacillus subtilis [12] = assay: Growth inhibition of Bacillus subtilis NCIM 2162 at 30 ug/ml measured after 12 hrs relative to control; type: functional; conditions: NCIM 2162, 12 h, read-out: GI
# Pseudomonas fluorescens [13] = assay: Antibacterial activity against Pseudomonas fluorescens NCIM 2059 measured after 8 hrs; type: functional; conditions: NCIM 2059, 8 h
# [14] = Selectivity index, ratio of GI50 for human HeLa cells to MIC for Mycobacterium bovis BCG ATCC 35743 dormant stage; type: toxicity, cell-based; conditions: read-out: Selectivity Index
# [15] = tested on: Mycobacterium tuberculosis; assay: Growth inhibition of Mycobacterium bovis BCG ATCC 35743 at 10 ug/ml by nitrate reductase based two-fold dilution assay relative to control; type: functional; conditions: BCG str. ATCC 35743, read-out: GI
# [16] = Selectivity index, ratio of GI50 for human HeLa cells to MIC for Mycobacterium tuberculosis H37Ra ATCC 25177 dormant stage; type: toxicity, cell-based; conditions: read-out: Selectivity Index
# Staphylococcus aureus [17] = assay: Antibacterial activity against Staphylococcus aureus NCIM 2602 measured after 12 hrs; type: functional; conditions: NCIM 2602, 12 h
# Escherichia coli [18] = assay: Antibacterial activity against Escherichia coli NCIM 2576 measured after 8 hrs; type: functional; conditions: NCIM 2576, 8 h
# [19] = Selectivity index, ratio of GI50 for human PANC1 cells to MIC for Mycobacterium tuberculosis H37Ra ATCC 25177 dormant stage; type: toxicity; conditions: PANC-1 cells, read-out: Selectivity Index
# [20] = Selectivity index, ratio of GI50 for human PANC1 cells to MIC for Mycobacterium bovis BCG ATCC 35743 dormant stage; type: toxicity; conditions: PANC-1 cells, read-out: Selectivity Index
# [21] = (§1) Growth inhibition of human A549 cells by MTT assay; type: cell-based; conditions: A549 cells
# A549 = assay: as §1; type: cell-based; conditions: a549
# [22] = tested on: Mycobacterium tuberculosis; assay: Antitubercular activity against Mycobacterium bovis BCG ATCC 35743 dormant stage by nitrate reductase based two-fold dilution assay; type: functional; conditions: BCG str. ATCC 35743
# PANC-1 = assay: (§2) Growth inhibition of human PANC1 cells by MTT assay; type: cell-based; conditions: panc-1
# [23] = as §2; type: cell-based, PANC-1; conditions: PANC-1 cells
# [24] = tested on: Mycobacterium tuberculosis; assay: Antitubercular activity against Mycobacterium tuberculosis H37Ra ATCC 25177 dormant stage by XTT dye based two-fold dilution method; type: functional
# [25] = Selectivity index, ratio of GI50 for human A549 cells to MIC for Mycobacterium tuberculosis H37Ra ATCC 25177 dormant stage; type: toxicity; conditions: read-out: Selectivity Index
# Bacillus subtilis [26] = assay: Antibacterial activity against Bacillus subtilis NCIM 2162 measured after 12 hrs; type: functional; conditions: NCIM 2162, 12 h
# Bacillus subtilis [27] = assay: Growth inhibition of Bacillus subtilis NCIM 2162 at 1 ug/ml measured after 12 hrs relative to control; type: functional; conditions: NCIM 2162, 12 h, read-out: GI
# [28] = Selectivity index, ratio of GI50 for human A549 cells to MIC for Mycobacterium bovis BCG ATCC 35743 dormant stage; type: toxicity; conditions: read-out: Selectivity Index
# [29] = tested on: Mycobacterium tuberculosis; assay: Growth inhibition of Mycobacterium tuberculosis H37Ra ATCC 25177 at 30 ug/ml by XTT dye based two-fold dilution method relative to control; type: functional; conditions: read-out: GI
# HeLa = assay: (§3) Growth inhibition of human HeLa cells by MTT assay; type: cell-based; conditions: hela
# [30] = as §3; type: cell-based; conditions: HeLa cells
# [31] = tested on: Mycobacterium tuberculosis; assay: Growth inhibition of Mycobacterium bovis BCG ATCC 35743 at 1 ug/ml by nitrate reductase based two-fold dilution assay relative to control; type: functional; conditions: BCG str. ATCC 35743, read-out: GI
# [32] = tested on: Mycobacterium tuberculosis; assay: Growth inhibition of Mycobacterium tuberculosis H37Ra ATCC 25177 at 10 ug/ml by XTT dye based two-fold dilution method relative to control; type: functional; conditions: read-out: GI
# Bacillus subtilis [33] = assay: Growth inhibition of Bacillus subtilis NCIM 2162 at 10 ug/ml measured after 12 hrs relative to control; type: functional; conditions: NCIM 2162, 12 h, read-out: GI
Compound,inhibition of growth at 10 µg/mL (Pseudomonas fluorescens [1]) [%],inhibition of growth at 30 µg/mL (Pseudomonas fluorescens [2]) [%],inhibition of growth at 10 µg/mL (Staphylococcus aureus [3]) [%],inhibition of growth at 1 µg/mL (Pseudomonas fluorescens [4]) [%],inhibition of growth at 1 µg/mL (Escherichia coli [5]) [%],inhibition of growth at 30 µg/mL (Escherichia coli [6]) [%],inhibition of growth at 10 µg/mL (Escherichia coli [7]) [%],inhibition of growth at 3 µg/mL [8] [%],inhibition of growth at 30 µg/mL [9] [%],inhibition of growth at 1 µg/mL (Staphylococcus aureus [10]) [%],inhibition of growth at 30 µg/mL (Staphylococcus aureus [11]) [%],inhibition of growth at 30 µg/mL (Bacillus subtilis [12]) [%],inhibition of growth at 10 µg/mL [15] [%],IC50 [22] [µM],MIC90 [22] [µM],IC50 [24] [µM],MIC90 [24] [µM],inhibition of growth at 30 µg/mL [29] [%],inhibition of growth at 1 µg/mL [31] [%],inhibition of growth at 10 µg/mL [32] [%],also measured
Cc1nc(-c2ccccc2)oc1-c1csc(-c2ccccc2)n1,93.4,97.7,89.9,88.9,91.2,98.2,94.2,56,92,85.7,94.2,96.8,63,7.34,85.9,8.66,87.5,93,63,71,MIC (Pseudomonas fluorescens [13]): 13.8 µM; selectivity ratio [14]: 5; selectivity ratio [16]: 4; MIC (Staphylococcus aureus [17]): 39.3 µM; MIC (Escherichia coli [18]): 7.54 µM; selectivity ratio [19]: 9; selectivity ratio [20]: 9; GI50 [21]: > 250 µg/mL; GI90 (A549): > 250 µg/mL; GI90 (PANC-1): > 250 µg/mL; GI50 [23]: > 250 µg/mL; selectivity ratio [25]: 9; MIC (Bacillus subtilis [26]): 7.91 µM; inhibition of growth at 1 µg/mL (Bacillus subtilis [27]): 91.3%; selectivity ratio [28]: 9; GI90 (HeLa): > 250 µg/mL; GI50 [30]: 123 µg/mL; inhibition of growth at 10 µg/mL (Bacillus subtilis [33]): 93.2%
CO[C@H]1/C=C/O[C@@]2(C)Oc3c(C)c(O)c4c(O)c(c(/C=N/N5CCN(C)CC5)c(O)c4c3C2=O)NC(=O)/C(C)=C\C=C\[C@H](C)[C@H](O)[C@@H](C)[C@@H](O)[C@@H](C)[C@H](OC(C)=O)[C@@H]1C [RIFAMPIN],–,–,–,–,–,–,–,96.4,99,–,–,–,96.8,0.04,0.98,0.0024,0.91,99.5,94.6,98,GI50 [21]: > 100 µg/mL; GI90 (A549): > 100 µg/mL; GI90 (PANC-1): > 100 µg/mL; GI50 [23]: > 100 µg/mL; GI90 (HeLa): > 100 µg/mL; GI50 [30]: > 100 µg/mL
Cc1nc(-c2ccccc2)oc1-c1csc(-c2ccc(F)c(Cl)c2)n1,77.1,89.6,80,69.8,65,88,74.3,19,34,70.9,88.5,85.6,33,> 100,> 100,> 100,> 100,30,16,21,MIC (Pseudomonas fluorescens [13]): > 100 µM; MIC (Staphylococcus aureus [17]): > 100 µM; MIC (Escherichia coli [18]): > 100 µM; MIC (Bacillus subtilis [26]): > 100 µM; inhibition of growth at 1 µg/mL (Bacillus subtilis [27]): 62%; inhibition of growth at 10 µg/mL (Bacillus subtilis [33]): 80.8%
Cc1nc(-c2ccc(F)cc2)oc1-c1csc(-c2ccc(F)c(Cl)c2)n1,56.2,65.8,55.2,44.3,45.7,64.2,55.9,6,29,45.7,63,69.4,23,> 100,> 100,> 100,> 100,13,21,11,MIC (Pseudomonas fluorescens [13]): > 100 µM; MIC (Staphylococcus aureus [17]): > 100 µM; MIC (Escherichia coli [18]): > 100 µM; MIC (Bacillus subtilis [26]): > 100 µM; inhibition of growth at 1 µg/mL (Bacillus subtilis [27]): 41.2%; inhibition of growth at 10 µg/mL (Bacillus subtilis [33]): 55.6%
Cc1nc(-c2ccccc2)oc1-c1csc(-c2cccc(Cl)c2)n1,56.2,65.8,55.6,23.5,24.9,68.2,51.8,12,40,20.5,69.4,69.8,26,> 100,> 100,> 100,> 100,27,26,14,MIC (Pseudomonas fluorescens [13]): > 100 µM; MIC (Staphylococcus aureus [17]): > 100 µM; MIC (Escherichia coli [18]): > 100 µM; MIC (Bacillus subtilis [26]): > 100 µM; inhibition of growth at 1 µg/mL (Bacillus subtilis [27]): 24.8%; inhibition of growth at 10 µg/mL (Bacillus subtilis [33]): 57.3%
CC(=O)O[C@H]1C(=O)[C@@]2(C)[C@H]([C@H](OC(=O)c3ccccc3)[C@]3(O)C[C@H](OC(=O)[C@H](O)[C@@H](NC(=O)c4ccccc4)c4ccccc4)C(C)=C1C3(C)C)[C@]1(OC(C)=O)CO[C@@H]1C[C@@H]2O [PACLITAXEL],–,–,–,–,–,–,–,–,–,–,–,–,–,–,–,–,–,–,–,–,GI90 (A549): 0.0706 µg/mL; GI90 (PANC-1): 5.715 µg/mL; GI90 (HeLa): 0.075 µg/mL
